Source: patent US20210283261A1, “Compositions and Methods for Treating ALK-Mediated Cancer” (ICAHN SCHOOL OF MEDICINE AT MOUNT SINAI, priority 2017, published 2021)

Assays:
[1] = target: T1, NPM-ALK fusion protein (Homo sapiens, UniProt Q9UM73); experiment: Western blot of NPM-ALK fusion protein levels in SU-DHL-1 cells; type: cell-based; settings: for effect on NPM-ALK fusion protein levels, time dependence: SU-DHL-1 cells, 0, 2, 4, 8, 16 and 24 h; for Dmax at 0.03 µM: 30 nM, Western blot, read-out: ALK fusion protein degradation, SU-DHL-1 (30 nM); for reversibility of induced ALK fusion protein degradation after washout: 100 nM for 2 h, PBS wash, fresh medium; for effect on NPM-ALK fusion protein levels, concentration dependence: SU-DHL-1 cells, 1, 3, 10, 30 or 100 nM
T1 construct: endogenous in cells; host or cells: SU-DHL-1; the other entry of the earlier key: NPM1 (P06748, Nucleophosmin)
T1 sequence (Q9UM73 with tags, fused parts or gaps): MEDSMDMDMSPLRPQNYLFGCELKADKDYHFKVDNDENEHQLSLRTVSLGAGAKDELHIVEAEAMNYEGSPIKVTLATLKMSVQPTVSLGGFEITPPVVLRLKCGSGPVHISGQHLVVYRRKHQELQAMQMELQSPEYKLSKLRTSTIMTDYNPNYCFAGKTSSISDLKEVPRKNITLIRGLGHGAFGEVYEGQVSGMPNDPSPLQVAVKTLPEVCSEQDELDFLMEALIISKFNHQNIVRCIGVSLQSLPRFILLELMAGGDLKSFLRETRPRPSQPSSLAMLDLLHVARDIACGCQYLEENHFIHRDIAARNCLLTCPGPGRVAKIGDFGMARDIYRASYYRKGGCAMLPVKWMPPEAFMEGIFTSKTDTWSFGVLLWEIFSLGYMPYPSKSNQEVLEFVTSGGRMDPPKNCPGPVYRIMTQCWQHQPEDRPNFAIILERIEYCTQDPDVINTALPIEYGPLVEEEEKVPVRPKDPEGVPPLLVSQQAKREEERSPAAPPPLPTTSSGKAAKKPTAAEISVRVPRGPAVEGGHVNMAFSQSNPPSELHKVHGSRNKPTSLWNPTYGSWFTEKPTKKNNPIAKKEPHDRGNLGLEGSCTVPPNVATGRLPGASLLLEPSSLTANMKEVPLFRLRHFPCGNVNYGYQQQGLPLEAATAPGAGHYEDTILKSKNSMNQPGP
How it was run: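 SU-DHL-1 cells treated with DMSO or compound serial dilutions for 16 h, or at 30 nM or 100 nM for varying times. NPM-ALK and phospho-ALK (Tyr1507) levels measured by Western blot and normalized to GAPDH.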

[2] = target: T2, EML4-ALK v3 fusion protein (Homo sapiens, UniProt Q9UM73); experiment: Western blot of EML4-ALK v3 fusion protein levels in NCI-H2228 cells; type: cell-based; settings: for effect on EML4-ALK fusion protein levels, time dependence: NCI-H2228 cells, 0, 2, 4, 8, 16 and 24 h; for effect on EML4-ALK fusion protein levels, concentration dependence: NCI-H2228 cells, 1, 3, 10, 30 or 100 nM, 16 h
T2 construct: endogenous in cells; host or cells: NCI-H2228
T2 sequence (Q9UM73 1058-1620 limits assumed): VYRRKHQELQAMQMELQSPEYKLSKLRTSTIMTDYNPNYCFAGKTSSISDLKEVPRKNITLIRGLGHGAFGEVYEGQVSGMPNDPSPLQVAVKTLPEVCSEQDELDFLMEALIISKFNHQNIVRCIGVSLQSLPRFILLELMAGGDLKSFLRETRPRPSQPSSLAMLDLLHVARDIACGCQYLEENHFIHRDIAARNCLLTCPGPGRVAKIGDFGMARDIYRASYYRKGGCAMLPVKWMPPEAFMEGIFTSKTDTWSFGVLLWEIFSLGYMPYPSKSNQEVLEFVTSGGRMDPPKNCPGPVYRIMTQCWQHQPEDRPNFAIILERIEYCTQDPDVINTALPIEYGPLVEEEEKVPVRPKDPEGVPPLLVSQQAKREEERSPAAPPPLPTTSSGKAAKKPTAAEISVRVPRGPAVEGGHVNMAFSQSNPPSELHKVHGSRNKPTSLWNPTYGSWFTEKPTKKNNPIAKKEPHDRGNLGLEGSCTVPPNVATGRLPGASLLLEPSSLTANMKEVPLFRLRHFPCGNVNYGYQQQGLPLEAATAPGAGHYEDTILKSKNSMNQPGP
Procedure: Cells were cultured in a 37° C. incubator with 5% CO2.
Cells were washed with cold PBS once and lysed in 1× Laemmli loading buffer directly. […] Membrane was blocked in 5% milk in Tris-buffered saline and Tween 20 (TBST) for 1 h at room temperature, followed by incubation with a primary antibody overnight at 4° C., and a horseradish peroxidase (HRP)-conjugated secondary antibody for 1 h at room temperature. The membrane was imaged by a ChemiDoc MP imaging system (BIO-RAD). Antibodies against GAPDH (abeam), Phospho-ALK (Tyr1507), ALK (Cell Signaling Technology), Tubulin (Santa Cruz) were purchased commercially.
Cells were 70% confluent and treated with DMSO or indicated serial dilutions of compounds for 16 h. The EML4-ALK fusion protein levels were determined by Western blot and normalized against GPADH (right panel).

[3] = target: T3, Phospho-ALK (Tyr1507) (Homo sapiens, UniProt Q9UM73); experiment: Western blot of ALK phosphorylation at Tyr1507 (ALK activity) in SU-DHL-1 cells; type: cell-based; settings: 3 nM, 16 h
T3 construct: endogenous in cells; host or cells: SU-DHL-1; the other entry of the earlier key: NPM1 (P06748, Nucleophosmin)
Procedure: Cells were washed with cold PBS once and lysed in 1× Laemmli loading buffer directly. Lysates were heated at 99° C. for […], and resolved on 4-15% precast SDS-PAGE (BIO-RAD) and transferred onto PVDF membrane. Membrane was blocked in 5% milk in Tris-buffered saline and Tween 20 (TBST) for 1 h at room temperature, followed by incubation with a primary antibody overnight at 4° C., and a horseradish peroxidase (HRP)-conjugated secondary antibody for 1 h at room temperature. The membrane was imaged by a ChemiDoc MP imaging system (BIO-RAD). Antibodies against GAPDH (abeam), Phospho-ALK (Tyr1507), ALK (Cell Signaling Technology), Tubulin (Santa Cruz) were purchased commercially.
SU-DHL-1 cells were seeded in 12-well plates at a density of 4×10^5/mL and treated with DMSO or indicated serial dilutions of compounds for 16 h. The NPM-ALK fusion protein levels were determined by Western blot and normalized against GPADH (right panel).

[4] = test system: SU-DHL-1 cells; experiment: Cell viability assay in SU-DHL-1 cells; type: cell-based; settings: for cell viability inhibition compared with negative controls / GI50: CellTiter-Glo; for GI50: Homo sapiens, 60 h, 2.5 days, read-out: GI50 (drug concentration that results in 50% growth inhibition)
Procedure: (§1) SU-DHL-1 cells were seeded in 96-well plates at a density of 1×10^4 cells per well, in triplicate. Treated cells with DMSO or indicated serial dilutions of compounds for 2.5 days. Cell growth/survival was measured by using the CellTiter-Glo luminescent cell viability assay following the manufacturer's instructions (Promega) or CCK8 cell viability assay (Sigma). Data was analyzed by using the GraphPad Prism software, Error bars represent ±SD for triplicate experiments.
as §1, with “assay.” for “assay following the manufacturer's instructions (Promega) or CCK8 cell viability assay (Sigma).”, “experiments (left panel).” for “experiments.”
SU-DHL-1 cells were seeded in 96-well plates at a density of 5000 cells per well, in triplicate. The cells were treated with DMSO or indicated serial dilutions of compounds for 3 days. Cell growth was measured using the CellTiter-Glo luminescent cell viability assay. Data were analyzed using the GraphPad Prism.
(§2) SU-DHL-1 and NCI-3122 cells were treated with DMSO or indicated serial dilutions of compounds for 3 days. Data were analyzed using the GraphPad Prism.

[5] = Standard PK study in mice, plasma concentrations; type: in vivo, male Swiss Albino mice; settings: single 50 mg/kg intraperitoneal (IP) injection, 30 min to 12 h
Procedure: Standard PK studies were conducted using male Swiss Albino mice. […] Error bars represent ±SD for triplicate samples.

[6] = test system: ALK; experiment: Characterization of ALK degraders in ALCL and NSCLC cells (summary); type: cell-based; settings: summary statement
Text: Specific exemplary ALK degraders/disruptors were characterized in various different anaplastic large cell lymphoma (ALCL) cells and non-small cell lung cancer (NSCLC) cells (Examples 4-19, FIGS. 1-18). […] This efficacy in suppressing ALK expression and ALK activity correlated with efficacy in inhibiting cancer cell proliferation.

[7] = target: T4, ALK fusion protein (Homo sapiens, UniProt Q9UM73); experiment: Western blot of ALK fusion protein levels in NCI-H3122 cells; type: cell-based
T4 construct: endogenous in cells; host or cells: NCI-H3122; the other entry of the earlier key: EML4 (Q9HC35, Echinoderm microtubule-associated protein-like 4)
T4 sequence (Q9UM73 with tags, fused parts or gaps): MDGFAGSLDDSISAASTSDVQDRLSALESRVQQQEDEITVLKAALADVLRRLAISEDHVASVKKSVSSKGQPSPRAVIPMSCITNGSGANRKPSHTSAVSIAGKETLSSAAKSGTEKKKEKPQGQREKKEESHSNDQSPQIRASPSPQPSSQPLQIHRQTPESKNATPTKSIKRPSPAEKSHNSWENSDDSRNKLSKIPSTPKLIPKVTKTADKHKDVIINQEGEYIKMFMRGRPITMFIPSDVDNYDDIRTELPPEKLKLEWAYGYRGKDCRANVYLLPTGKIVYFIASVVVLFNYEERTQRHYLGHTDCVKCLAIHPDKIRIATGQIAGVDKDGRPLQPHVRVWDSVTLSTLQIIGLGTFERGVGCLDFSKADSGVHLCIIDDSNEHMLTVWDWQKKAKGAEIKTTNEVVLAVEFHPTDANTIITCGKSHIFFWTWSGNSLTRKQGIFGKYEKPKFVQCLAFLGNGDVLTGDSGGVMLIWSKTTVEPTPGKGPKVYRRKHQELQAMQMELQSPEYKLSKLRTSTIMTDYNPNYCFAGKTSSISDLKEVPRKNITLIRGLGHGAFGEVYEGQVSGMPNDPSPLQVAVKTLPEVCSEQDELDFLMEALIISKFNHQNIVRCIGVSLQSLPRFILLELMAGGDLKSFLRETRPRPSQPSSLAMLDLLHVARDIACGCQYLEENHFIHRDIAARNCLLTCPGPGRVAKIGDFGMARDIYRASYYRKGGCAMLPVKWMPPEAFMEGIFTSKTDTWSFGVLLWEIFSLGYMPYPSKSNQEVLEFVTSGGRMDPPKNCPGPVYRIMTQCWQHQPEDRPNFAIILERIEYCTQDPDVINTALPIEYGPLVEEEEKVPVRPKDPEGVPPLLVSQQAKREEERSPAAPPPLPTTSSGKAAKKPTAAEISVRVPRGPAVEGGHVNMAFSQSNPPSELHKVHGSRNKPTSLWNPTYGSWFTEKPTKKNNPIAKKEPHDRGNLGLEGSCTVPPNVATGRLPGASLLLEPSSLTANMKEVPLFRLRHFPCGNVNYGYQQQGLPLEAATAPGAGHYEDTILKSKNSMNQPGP

[8] = test system: NCI-H3122 cells; experiment: Cell viability assay in NCI-H3122 cells; type: cell-based; settings: 3 days
Procedure: SU-DHL-1, NCI-H3122 and NCI-H2228 cells were cultured in RPMI-1640 medium supplemented with 10% fetal bovine serum, 50 μg/mL penicillin and streptomycin. Cells were cultured in a 37° C. incubator with 5% CO2.
as §2

[9] = SU-DHL-1 cells, 2 h pre-treatment, then 100 nM compound for 6 h

Cc1cc(Nc2ncc(Cl)c(Nc3ccccc3S(=O)(=O)C(C)C)n2)c(OC(C)C)cc1C1CCN(CC(=O)NCCNc2cccc3c2C(=O)N(C2CCC(=O)NC2=O)C3=O)CC1 (centres unmarked) [CZ40-78, 2-(4-(4-((5-Chloro-4-((2-(isopropylsulfonyl)phenyl)amino)pyrimidin-2-yl)amino)-5-isopropoxy-2-methylphenyl)piperidin-1-yl)-N-(2-((2-(2,6-dioxopiperidin-3-yl)-1,3-dioxoisoindolin-4-yl)amino)ethyl)acetamide]
effect on NPM-ALK fusion protein levels, time dependence [1]: time-dependently reduced
Dmax at 0.03 µM ([1]; SU-DHL-1 cells): > 80%
reversibility of induced ALK fusion protein degradation after washout ([1]; SU-DHL-1 cells): Reversible
effect on NPM-ALK fusion protein levels, concentration dependence ([1]; 16 h): concentration-dependently reduced
rescue of induced NPM-ALK degradation by pomalidomide, MLN4924 and MG-132 [1, 9]: significantly rescued
effect on EML4-ALK fusion protein levels, time dependence [2]: time-dependently reduced
effect on EML4-ALK fusion protein levels, concentration dependence [2]: concentration-dependently reduced
inhibition of ALK activity (phosphorylation at Tyr1507) [3]: strongly inhibited
cell viability inhibition compared with negative controls ([4]; 3 days): better cell viability inhibition
GI50 [4]: < 40 nM
bioavailability in mice [5]: Bioavailable
suppressing both ALK expression and ALK activity [6]: especially effective

Cc1cc(Nc2ncc(Cl)c(Nc3ccccc3S(=O)(=O)C(C)C)n2)c(OC(C)C)cc1C1CCN(CC(=O)NCCOCCOCCOCCOCCOCCNc2cccc3c2C(=O)N(C2CCC(=O)NC2=O)C3=O)CC1 (centres unmarked) [CZ40-77, 2-(4-(4-((5-Chloro-4-((2-(isopropylsulfonyl)phenyl)amino)pyrimidin-2-yl)amino)-5-isopropoxy-2-methylphenyl)piperidin-1-yl)-N-(17-((2-(2,6-dioxopiperidin-3-yl)-1,3-dioxoisoindolin-4-yl)amino)-3,6,9,12,15-pentaoxaheptadecyl)acetamide]
effect on NPM-ALK fusion protein levels, time dependence [1]: time-dependently reduced
Dmax at 0.03 µM ([1]; SU-DHL-1 cells): > 80%
reversibility of induced ALK fusion protein degradation after washout ([1]; SU-DHL-1 cells): Reversible
effect on NPM-ALK fusion protein levels, concentration dependence ([1]; 16 h): concentration-dependently reduced
rescue of induced NPM-ALK degradation by pomalidomide, MLN4924 and MG-132 [1, 9]: significantly rescued
effect on EML4-ALK fusion protein levels, time dependence [2]: time-dependently reduced
effect on EML4-ALK fusion protein levels, concentration dependence [2]: concentration-dependently reduced
inhibition of ALK activity (phosphorylation at Tyr1507) [3]: strongly inhibited
cell viability inhibition compared with negative controls ([4]; 3 days): better cell viability inhibition
GI50 [4]: < 40 nM
suppressing both ALK expression and ALK activity [6]: especially effective

Cc1cc(Nc2ncc(Cl)c(Nc3ccccc3S(=O)(=O)C(C)C)n2)c(OC(C)C)cc1C1CCN(C(=O)CCCCC(=O)N[C@H](C(=O)N2C[C@H](O)C[C@H]2C(=O)NCc2ccc(-c3scnc3C)cc2)C(C)(C)C)CC1 [CZ47-24, (2S,4R)-1-((S)-2-(6-(4-(4-((5-Chloro-4-((2-(isopropylsulfonyl)phenyl)amino)pyrimidin-2-yl)amino)-5-isopropoxy-2-methylphenyl)piperidin-1-yl)-6-oxohexanamido)-3,3-dimethylbutanoyl)-4-hydroxy-N-(4-(4-methylthiazol-5-yl)benzyl)pyrrolidine-2-carboxamide]
effect on ALK fusion protein levels, concentration dependence ([1]; SU-DHL-1 cells, 0, 10, 20, 40, 80 and 160 nM, 16 h): concentration-dependently reduced
rescue of induced ALK fusion protein degradation by MG-132 and MLN4924 [1, 9]: significantly rescued
significantly reduced ALK fusion protein levels (degraders vs negative controls) ([1]; SU-DHL-1 cells, 16 h): significantly reduced
Dmax at 0.5 µM ([7]; NCI-H3122, NCI-H3122 cells, 500 nM, Western blot, read-out: ALK fusion protein degradation, NCI-H3122 (500 nM)): > 80%
effect on ALK fusion protein levels, concentration dependence ([7]; NCI-H3122 cells, 0, 50, 100, 200, 400 and 800 nM, 16 h): concentration-dependently reduced
significantly reduced ALK fusion protein levels (degraders vs negative controls) ([7]; NCI-H3122 cells, 16 h): significantly reduced
inhibition of cell viability ([4]; 3 days): significantly inhibited
inhibition of cell viability [8]: significantly inhibited
suppressing both ALK expression and ALK activity [6]: especially effective
